Read-outs that look alike come from different tables or passages of the source.
Columns and labels:
[1] = biological target: recombinant human cathepsin S (Homo sapiens, UniProt P25774); experiment: Cathepsin S enzyme activity assay; format: biochemical; conditions: 10 uM Z-Leu-Arg-AMC, pH 4.5, 25° C.
Procedure: The cysteine protease inhibitor E-64 is assayed in parallel as a positive control.
Human recombinant cathepsin S is incubated with compounds or vehicle (final concentration=1% DMSO vehicle) in the presence of peptide substrate which is 10 uM Z-Leu-Arg-AMC. Compounds are preincubated with the enzyme for 15 minutes at 25° C. and the reaction started by the addition of substrate. Incubation with substrate proceeds for 30 minutes at 25° C. Incubation buffer is 20 mM CH3COONa, pH 4.5, 2.5 mM DTT, 0.05 M NaCl. Cathepsin S-mediated substrate cleavage is quantified using spectofluorimetric quantitation of AMC.

[2] = test system: HCV replicon-containing cells (Huh7/Clone A); experiment: HCV replicon assay; format: cell-based, Hepatitis C virus; conditions: at 25 μM, 48 hours
From the text: The HCV replicon assay is a cell-culture system that mimics in vivo HCV replication and provides a system to study HCV replication in vitro. It was created by transfecting cloned viral RNA derived from a consensus HCV genomic sequence into human Huh7 hepatoma cells that are semi-permissive for viral RNA production (Lohmann V., Korner F., Koch J.-O., Herian U., Theilmann L. and Bartenschlager R. (1999). Replication of subgenomic Hepatitis C virus RNAs in a hepatoma cell line. Science 285, 110-113 and Blight K. J., Kolykhalov A. A. and Rice C. M. (2000). Efficient initiation of HCV RNA Replication in cell culture. Science 290, […]). These transfected cell lines contain a subgenomic HCV RNA genome that includes (1) the HCV 5′NTR fused to 12 amino acids of the capsid coding region, (2) the neomycin phosphotransferase gene (Neo) as a selectable marker, (3) the internal ribosome entry site (IRES) from encephalomyocarditis virus (EMCV) that directs translation of HCV non-structural proteins (variously NS2 or NS3 to NS5B), and (4) the 3′ NTR. Replicon-containing cells autonomously and persistently replicate HCV RNA that can be measured quantitatively by real-time qPCR. Therefore, the replicon system facilitates quantitative assessment of anti-viral activity by monitoring changes in HCV RNA replication in a cell-based assay.
HCV replicon-containing cells (Huh7/Clone A) were routinely maintained in Clone A growth medium (DMEM medium [Invitrogen], supplemented with 10% Fetal Bovine Serum, 1% Non Essential Amino Acids and 1 g/L G418). Test compounds were dissolved in dimethylsulfoxide (DMSO) to make 200× stock solutions for all doses prior to treatment.
For the HCV replicon assay, Huh7/Clone A cells were trypsinized from culture flasks, seeded in 1 ml of Clone A growth medium without G418 at 4×10^4 cells per well in 24-well plates and incubated at 37° C. in a humidified CO2 (5%) incubator overnight. Following overnight incubation, compound solutions were added into wells in the same volume (5 μl of 200× compound stock per well) to give a final DMSO concentration of 0.5%. Three wells on each plate supplemented with 5 μl of DMSO served as untreated controls. […]
Total RNA eluted in 130 μl of RNase-free dH2O was quantitated by the RiboGreen Assay according to the supplier's protocol (Molecular Probe). […] RNA samples in the black microplate were mixed with 95 μl of diluted RiboGreen reagent (1:250 dilution in TE buffer) and sample fluorescence was measured using a fluorescence microplate reader at standard fluorescein wavelengths (excitation ˜480 nm, emission ˜520 nm). […]
TaqMan quantitative PCR (RT-qPCR) was used to quantitate the amount of HCV replicon RNA in each sample. […]

[3] = recombinant human cathepsin S, read-out: Cathepsin S IC50
[4] = Cathepsin S IC50, recombinant human cathepsin S

recombinant human cathepsin S, sequence (P25774 115-331): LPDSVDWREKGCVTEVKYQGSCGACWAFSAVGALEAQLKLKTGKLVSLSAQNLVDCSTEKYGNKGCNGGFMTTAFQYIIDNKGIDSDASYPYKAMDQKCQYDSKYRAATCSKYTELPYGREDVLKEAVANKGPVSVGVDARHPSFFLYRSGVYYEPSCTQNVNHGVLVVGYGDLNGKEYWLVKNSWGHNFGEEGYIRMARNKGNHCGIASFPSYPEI

Row | Structure (SMILES) | IC50 [1, 3] [nM] | inhibition of HCV replicon RNA [2] [%] | IC50 [1, 4] [nM]
1 | CCC[C@H](NC(=O)[C@@H]1[C@H]2CCC[C@H]2CN1C(=O)[C@@H](NC(C(NC(=O)c1cnccn1)C1CCCCC1)C(F)(F)F)C(C)(C)C)C(=O)C(=O)NC1CC1 (single isomer, unassigned) [Formula I isomer A] | 4.1 | 41 | 
2 | CCC[C@H](NC(=O)[C@@H]1[C@H]2CCC[C@H]2CN1C(=O)[C@@H](NC(C(NC(=O)c1cnccn1)C1CCCCC1)C(F)(F)F)C(C)(C)C)C(=O)C(=O)NC1CC1 (single isomer, unassigned) [Formula I isomer B] |  | 33 | 0.6
3 | CCC[C@H](NC(=O)[C@@H]1[C@H]2CCC[C@H]2CN1C(=O)[C@@H](NC(C(NC(=O)c1cnccn1)C1CCCCC1)C(F)(F)F)C(C)(C)C)C(=O)C(=O)NC1CC1 (single isomer, unassigned) [Formula I isomer C] |  | 34 | 2
4 | CCC[C@H](NC(=O)[C@@H]1[C@H]2CCC[C@H]2CN1C(=O)[C@@H](NC(C(NC(=O)c1cnccn1)C1CCCCC1)C(F)(F)F)C(C)(C)C)C(=O)C(=O)NC1CC1 (single isomer, unassigned) [Formula I isomer D] |  | 29 | 0.6
5 | CCC[C@H](NC(=O)[C@@H]1[C@H]2CCC[C@H]2CN1C(=O)[C@@H](NC(=O)[C@@H](NC(c1cnccn1)C(F)(F)F)C1CCCCC1)C(C)(C)C)C(=O)C(=O)NC1CC1 (single isomer, unassigned) [Formula I isomer E] | 1.8 |  | 
6 | CCC[C@H](NC(=O)[C@@H]1[C@H]2CCC[C@H]2CN1C(=O)[C@@H](NC(=O)[C@@H](NC(c1cnccn1)C(F)(F)F)C1CCCCC1)C(C)(C)C)C(=O)C(=O)NC1CC1 (single isomer, unassigned) [Formula I isomer F] | 1.4 |  | 
